Literature values, collected in Sander's compilation of Henry's law constants (doi:10.1016/0045-6535(88)90142-7).

Experiment: Henry solubility constant Hcp at 298.15 K (mol/(m3 Pa))
Conditions: reference: Ryan et al. (1988); cited value

| SMILES | Henry solubility constant Hcp |
| --- | --- |
| Clc1ccc(C(c2ccc(Cl)cc2)C(Cl)(Cl)Cl)cc1 [1,1,1-trichloro-2,2-bis-(4-chlorophenyl)-ethane] | 0.2 |
| CC(Cl)(Cl)Cl [1,1,1-trichloroethane] | 0.00031 |
| ClC(Cl)C(Cl)Cl [1,1,2,2-tetrachloroethane] | 0.025 |
| ClCC(Cl)Cl [1,1,2-trichloroethane] | 0.0013 |
| Clc1ccc(C(c2ccc(Cl)cc2)C(Cl)Cl)cc1 [1,1-dichloro-2,2-bis-(4-chlorophenyl)-ethane] | 0.00081 |
| ClC(Cl)=C(c1ccc(Cl)cc1)c1ccc(Cl)cc1 [1,1-dichloro-2,2-bis-(4-chlorophenyl)-ethene] | 0.45 |
| C=C(Cl)Cl [1,1-dichloroethene] | 0.0022 |
| CC(Cl)CCl (stereo not drawn) [1,2-dichloropropane] | 0.0034 |
| Clc1cccc(Cl)c1 [1,3-dichlorobenzene] | 0.0037 |
| ClC=CCCl [1,3-dichloropropene] | 0.0081 |
| Clc1ccc(Cl)cc1 [1,4-dichlorobenzene] | 0.0041 |
| ClCCOCCCl [1,5-dichloro-3-oxapentane] | 8.6 |
| Cc1ccc(O)c(C)c1 [1-hydroxy-2,4-dimethylbenzene] | 0.54 |
| c1ccc2c(c1)Cc1ccccc1-2 [2,3-benzindene] | 0.084 |
| Oc1ccc(Cl)cc1Cl [2,4-dichlorophenol] | 1.8 |
| O=[N+]([O-])c1ccc(O)c([N+](=O)[O-])c1 [2,4-dinitrophenol] | 15000 |
| Clc1ccc2ccccc2c1 [2-chloronaphthalene] | 0.031 |
| Oc1ccccc1Cl [2-hydroxychlorobenzene] | 2.1 |
| O=[N+]([O-])c1ccccc1O [2-nitrophenol] | 1.3 |
| C=CC#N [2-propenenitrile] | 0.11 |
| Cc1cc(O)ccc1Cl [4-chloro-3-methylphenol] | 4 |

| SMILES | Henry solubility constant Hcp |
| --- | --- |
| O=[N+]([O-])c1ccc(O)cc1 [4-nitrophenol] | 1.6 |
| c1cc2c3c(cccc3c1)CC2 [acenaphthene] | 0.04 |
| C1=Cc2cccc3cccc1c23 [acenaphthylene] | 0.084 |
| ClC1=C(Cl)[C@]2(Cl)[C@H]3[C@H]([C@@H]4C=C[C@H]3C4)[C@@]1(Cl)C2(Cl)Cl [aldrin] | 0.82 |
| c1ccc2cc3ccccc3cc2c1 [anthracene] | 0.037 |
| c1ccccc1 [benzene] | 0.0018 |
| c1ccc2c(c1)cc1ccc3cccc4ccc2c1c34 [benzo[a]pyrene] | 0.00082 |
| c1ccc2c(c1)-c1cccc3cccc-2c13 [benzo[jk]fluorene] | 1 |
| CCCCC(CC)COC(=O)c1ccccc1C(=O)OCC(CC)CCCC (stereo not drawn) [bis(2-ethylhexyl)-phthalate] | 34 |
| ClCCOCOCCCl [bis-(2-chloroethoxy)-methane] | 37 |
| CC(CCl)OC(C)CCl (stereo not drawn) [bis-(2-chloroisopropyl) ether] | 0.0086 |
| ClCOCCl [bis-(chloromethyl) ether] | 0.0047 |
| CCBr [bromoethane] | 9.2e-05 |
| CCCCOC(=O)c1ccccc1C(=O)OCc1ccccc1 [butyl benzyl phthalate] | 9.6 |
| ClC1=C(Cl)[C@]2(Cl)C3C(Cl)C(Cl)CC3[C@@]1(Cl)C2(Cl)Cl (stereo partly drawn) [chlordane] | 0.1 |
| Clc1ccccc1 [chlorobenzene] | 0.0027 |
| CCCl [chloroethane] | 0.00066 |
| C=CCl [chloroethene] | 0.00065 |
| c1ccc2c(c1)ccc1c3ccccc3ccc21 [chrysene] | 0.0046 |
| CCCCOC(=O)c1ccccc1C(=O)OCCCC [dibutyl phthalate] | 34 |
| FC(F)(Cl)Cl [dichlorodifluoromethane] | 6.4e-06 |

| SMILES | Henry solubility constant Hcp |
| --- | --- |
| ClCCl [dichloromethane] | 0.0047 |
| ClC1=C(Cl)[C@]2(Cl)[C@@H]3[C@@H]4C[C@@H]([C@H]5O[C@@H]45)[C@@H]3[C@@]1(Cl)C2(Cl)Cl [dieldrin] | 1.3 |
| COC(=O)c1ccccc1C(=O)OC [dimethyl phthalate] | 50 |
| CCCCCCCCOC(=O)c1ccccc1C(=O)OCCCCCCCC [dioctyl phthalate] | 34 |
| ClC1=C(Cl)[C@]2(Cl)[C@@H]3[C@H]4C[C@H]([C@@H]5O[C@H]45)[C@@H]3[C@@]1(Cl)C2(Cl)Cl [endrin] | 24 |
| CCc1ccccc1 [ethylbenzene] | 0.0016 |
| ClC1=C(Cl)C2(Cl)C3C(Cl)C=CC3C1(Cl)C2(Cl)Cl (stereo not drawn) [heptachlor] | 0.0065 |
| ClC1=C(Cl)C2(Cl)C3C4OC4C(Cl)C3C1(Cl)C2(Cl)Cl (stereo not drawn) [heptachlorepoxide] | 13 |
| ClC(Cl)=C(Cl)C(Cl)=C(Cl)Cl [hexachlorobutadiene] | 0.00094 |
| ClC1=C(Cl)C(Cl)(Cl)C(Cl)=C1Cl [hexachlorocyclopentadiene] | 0.00027 |
| ClC(Cl)(Cl)C(Cl)(Cl)Cl [hexachloroethane] | 0.00098 |
| Cc1ccccc1 [methylbenzene] | 0.0014 |
| c1ccc2ccccc2c1 [naphthalene] | 0.02 |
| O=[N+]([O-])c1ccccc1 [nitrobenzene] | 0.75 |
| c1ccc2c(c1)ccc1ccccc12 [phenanthrene] | 0.25 |
| C=CC=O [propenal] | 0.14 |
| ClC(Cl)=C(Cl)Cl [tetrachloroethene] | 0.00063 |
| ClC(Cl)(Cl)Cl [tetrachloromethane] | 0.00045 |
| BrC(Br)Br [tribromomethane] | 0.017 |
| ClC=C(Cl)Cl [trichloroethene] | 0.0011 |
| ClC1C(Cl)C(Cl)C(Cl)C(Cl)C1Cl (stereo not drawn) [β-1,2,3,4,5,6-hexachlorocyclohexane] | 0.67 |
